Results on 31 molecules are retold here after patent US12377084B2, “ERAP1 modulators” (GREY WOLF THERAPEUTICS LIMITED, priority 2019, dated 2025).

Structures are written as SMILES. Where a name gives a salt, the structure may show the parent alone.

T1 sequence (Q9NZ08 37-941): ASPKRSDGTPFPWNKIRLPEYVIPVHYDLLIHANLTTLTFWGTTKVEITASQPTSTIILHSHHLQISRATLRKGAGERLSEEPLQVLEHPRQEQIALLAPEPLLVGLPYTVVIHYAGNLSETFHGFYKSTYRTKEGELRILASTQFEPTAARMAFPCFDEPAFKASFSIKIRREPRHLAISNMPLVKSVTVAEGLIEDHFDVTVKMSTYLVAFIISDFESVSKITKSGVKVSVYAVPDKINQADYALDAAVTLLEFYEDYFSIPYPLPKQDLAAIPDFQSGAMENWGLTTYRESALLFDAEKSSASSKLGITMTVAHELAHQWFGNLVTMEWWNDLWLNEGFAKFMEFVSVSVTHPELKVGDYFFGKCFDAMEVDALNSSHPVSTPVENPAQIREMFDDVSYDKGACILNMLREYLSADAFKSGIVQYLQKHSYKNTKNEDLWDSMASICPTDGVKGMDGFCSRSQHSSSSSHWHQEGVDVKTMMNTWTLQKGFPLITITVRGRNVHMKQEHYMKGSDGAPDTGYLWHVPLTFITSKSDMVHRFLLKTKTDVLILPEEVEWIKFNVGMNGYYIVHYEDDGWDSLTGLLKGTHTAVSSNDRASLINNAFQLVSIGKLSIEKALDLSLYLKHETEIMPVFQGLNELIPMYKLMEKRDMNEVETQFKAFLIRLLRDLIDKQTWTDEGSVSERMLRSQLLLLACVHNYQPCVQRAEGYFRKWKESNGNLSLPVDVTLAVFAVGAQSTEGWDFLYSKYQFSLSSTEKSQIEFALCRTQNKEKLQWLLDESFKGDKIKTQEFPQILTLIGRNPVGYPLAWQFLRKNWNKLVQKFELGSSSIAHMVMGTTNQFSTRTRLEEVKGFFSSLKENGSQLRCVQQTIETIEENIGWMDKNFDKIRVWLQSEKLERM

The assay addresses T1, Purified ERAP1(37-941)-10 His (ERAP1) (Homo sapiens, UniProt Q9NZ08).
T1 construct: Purified ERAP1(37-941)-10 His (ERAP1); 10xHis (C)
Briefly: ERAP1 mediated hydrolysis of an amide substrate in a biochemical system (10 mer inhibition assay). To be noted: 10-mer substrate, incubated at 23° C. for 1 h; excitation 279 nm, emission 355 nm; read-out: IC50 vs Decapeptide WRVYEKC(Dnp)ALK-acid (where Dnp is Dinitrophenyl maleimide) (10-mer). The text has this:
This peptide has minimal fluorescence as the N-terminal tryptophan residue's fluorescence is quenched by the dinitrophenol (DNP) residue within the peptide. However, as ERAP1 hydrolyses the N-terminal amide bond and tryptophan is released this internal quenching is lost and the reaction is monitored by the increase in tryptophan fluorescence over the course of the assay. For the purposes of this application this assay is referred to as the “10 mer inhibition assay” and compound potencies are calculated and expressed as IC50 as would be familiar to a person skilled in the art.
Biological Assay 1: ERAP1 Mediated Hydrolysis of an Amide Substrate Measured in a Biochemical System
1× Assay buffer (AB): 25 mM Bis-tris propane, 0.05% w/v
Hydroxypropylmethylcellulose pH 7.75 made with Optima grade water
Decapeptide WRVYEKC(Dnp)ALK-acid (where Dnp is Dinitrophenyl maleimide) (10-mer)
12.5 μL ERAP1 enzyme in 1×AB was combined with 250 nL test compound in DMSO. 12.5 μL of either 240 μM L-AMC in 1×AB or 100 μM 10-mer in 1×AB was added to the reaction and incubated at 23° C. for 1 h. For detection, plates were read at excitation 365 nm and emission 442 nm (L-AMC) or excitation 279 nm and emission 355 nm (10-mer). Compound IC50 was determined using a 4-parameter equation.
The IC50 is the midpoint of a concentration-inhibition curve. Regarding `O=C(O)c1ccc(C2CC2)c(S(=O)(=O)Nc2cc(C(F)(F)F)ccc2C2CCCCN2)c1` (single isomer, unassigned; enantiomer 1) [Example 29, 4-cyclopropyl-3-(N-(2-(piperidin-2-yl)-5-(trifluoromethyl)phenyl)sulfamoyl)benzoic Acid Enantiomer 1], the IC50 was < 100 nM.

In the case of `O=C(O)c1ccc(C2CC2)c(S(=O)(=O)Nc2cc(C(F)(F)F)ccc2C2CCCCN2)c1` (single isomer, unassigned; enantiomer 2) [Example 30, 4-cyclopropyl-3-(N-(2-(piperidin-2-yl)-5-(trifluoromethyl)phenyl)sulfamoyl)benzoic Acid Enantiomer 2], the IC50 is < 100 nM.

Turning to `COc1ccc(C(=O)O)cc1S(=O)(=O)Nc1cc(C(F)(F)F)ccc1C1CCCN(C)C1` (stereo not shown) [Example 1, 4-methoxy-3-(N-(2-(1-methylpiperidin-3-yl)-5-(trifluoromethyl)phenyl)sulfamoyl)benzoic Acid], the IC50 is > 500 nM. In the case of `COc1ccc(C(=O)O)cc1S(=O)(=O)Nc1cc(C(F)(F)F)ccc1C1CCCNC1` (stereo not shown) [Example 2, 4-methoxy-3-(N-(2-(piperidin-3-yl)-5-(trifluoromethyl)phenyl)sulfamoyl)benzoic Acid Hydrochloride], the IC50 is 100 to 500 nM. Consider `CCc1ccc(C(=O)O)cc1S(=O)(=O)Nc1cc(C(F)(F)F)ccc1C1CCCNC1` (stereo not shown) [Example 3, 4-ethyl-3-(N-(2-(piperidin-3-yl)-5-(trifluoromethyl)phenyl)sulfamoyl)benzoic Acid Hydrochloride], for which the IC50 was < 100 nM. For `CCc1ccc(C(=O)O)cc1S(=O)(=O)Nc1cc(-n2cnnn2)ccc1C1CCCCC1` [Example 4, 3-(N-(2-cyclohexyl-5-(tetrazol-1-yl)phenyl)sulfamoyl)-4-ethylbenzoic Acid] the value was < 100 nM; for `CCc1ccc(C(=O)O)cc1S(=O)(=O)Nc1cc(C(F)(F)F)ccc1C1CCCN1` (stereo not shown) [Example 5, 4-ethyl-3-(N-(2-(pyrrolidin-2-yl)-5-(trifluoromethyl)phenyl)sulfamoyl)benzoic Acid], 100 to 500 nM; for `CCc1ccc(C(=O)O)cc1S(=O)(=O)Nc1cc(C(F)(F)F)ccc1C1CCCN1C` (stereo not shown) [Example 6, 4-ethyl-3-(N-(2-(1-methylpyrrolidin-2-yl)-5-(trifluoromethyl)phenyl)sulfamoyl)benzoic], 100 to 500 nM. `CCc1ccc(C(=O)O)cc1S(=O)(=O)Nc1cc(C(F)(F)F)ccc1C1CCNC1` (stereo not shown) [Example 7, 4-ethyl-3-(N-(2-(pyrrolidin-3-yl)-5-(trifluoromethyl)phenyl)sulfamoyl)benzoic Acid]: the IC50 is < 100 nM. For `CCc1ccc(C(=O)O)cc1S(=O)(=O)Nc1cc(C(F)(F)F)ccc1C1CCCCN1` (stereo not shown) [Example 8, 4-ethyl-3-(N-(2-(piperidin-2-yl)-5-(trifluoromethyl)phenyl)sulfamoyl)benzoic Acid], the IC50 was < 100 nM.

In the case of `CCc1ccc(C(=O)O)cc1S(=O)(=O)Nc1cc(C(F)(F)F)ccc1C1CCCCC1` [Example 9, 3-(N-(2-cyclohexyl-5-(trifluoromethyl)phenyl)sulfamoyl)-4-ethylbenzoic Acid], the IC50 was < 100 nM.

As to `CCc1ccc(C(=O)O)cc1S(=O)(=O)Nc1cc(C(F)(F)F)ccc1C1CCCCN1C` (stereo not shown) [Example 10, 4-ethyl-3-(N-(2-(1-methylpiperidin-2-yl)-5-(trifluoromethyl)phenyl)sulfamoyl)benzoic Acid], the IC50 was < 100 nM. As for `CCc1ccc(C(=O)O)cc1S(=O)(=O)Nc1cc(S(C)(=O)=O)ccc1C1CCCCC1` [Example 11, 3-(N-(2-cyclohexyl-5-(methylsulfonyl)phenyl)sulfamoyl)-4-ethylbenzoic Acid], the IC50 was < 100 nM. For `O=C(O)c1ccc(C2CC2)c(S(=O)(=O)Nc2cc(C(F)(F)F)ccc2C2CCCNC2)c1` (stereo not shown) [Example 12, 4-cyclopropyl-3-(N-(2-(piperidin-3-yl)-5-(trifluoromethyl)phenyl)sulfamoyl)benzoic Acid] the value was < 100 nM; for `CCc1ccc(C(=O)O)cc1S(=O)(=O)Nc1cc(C#N)ccc1C1CCCCC1` [Example 13, 3-(N-(5-cyano-2-cyclohexylphenyl)sulfamoyl)-4-ethylbenzoic Acid], < 100 nM; for `CCc1ccc(C(=O)O)cc1S(=O)(=O)Nc1cc(S(C)(=O)=O)ccc1C1CCCNC1` (stereo not shown) [Example 14, 4-ethyl-3-(N-(5-(methylsulfonyl)-2-(piperidin-3-yl)phenyl)sulfamoyl)benzoic Acid], < 100 nM. Turning to `CCc1ccc(C(=O)O)cc1S(=O)(=O)Nc1cc(S(C)(=O)=O)ccc1C1CCCCN1` (stereo not shown) [Example 15, 4-ethyl-3-(N-(5-(methylsulfonyl)-2-(piperidin-2-yl)phenyl)sulfamoyl)benzoic Acid], the IC50 is < 100 nM. Consider `O=C(O)c1ccc(C2CC2)c(S(=O)(=O)Nc2cc(C(F)(F)F)ccc2C2CCCCN2)c1` (stereo not shown) [Example 16, 4-cyclopropyl-3-(N-(2-(piperidin-2-yl)-5-(trifluoromethyl)phenyl)sulfamoyl)benzoic Acid], for which the IC50 is < 100 nM.

Take `CS(=O)(=O)c1ccc(C2CCCCC2)c(NS(=O)(=O)c2cc(C(=O)O)ccc2C2CC2)c1` [Example 17, 3-(N-(2-cyclohexyl-5-(methylsulfonyl)phenyl)sulfamoyl)-4-cyclopropylbenzoic Acid]: the IC50 is < 100 nM. As for `N#Cc1ccc(C2CCCCC2)c(NS(=O)(=O)c2cc(C(=O)O)ccc2C2CC2)c1` [Example 18, 3-(N-(5-cyano-2-cyclohexylphenyl)sulfamoyl)-4-cyclopropylbenzoic Acid], the IC50 is < 100 nM. `N#Cc1ccc(C2CCCCN2)c(NS(=O)(=O)c2cc(C(=O)O)ccc2C2CC2)c1` (stereo not shown) [Example 19, 3-(N-(5-cyano-2-(piperidin-2-yl)phenyl)sulfamoyl)-4-cyclopropylbenzoic Acid]: the IC50 is < 100 nM. As for `CS(=O)(=O)c1ccc(C2CCCCN2)c(NS(=O)(=O)c2cc(C(=O)O)ccc2C2CC2)c1` (stereo not shown) [Example 20, 4-cyclopropyl-3-(N-(5-(methylsulfonyl)-2-(piperidin-2-yl)phenyl)sulfamoyl)benzoic Acid], the IC50 is < 100 nM. As to `N#Cc1cc(NS(=O)(=O)c2cc(C(=O)O)ccc2C2CC2)c(C2CCCCN2)cc1F` (stereo not shown) [Example 21, 3-(N-(5-cyano-4-fluoro-2-(piperidin-2-yl)phenyl)sulfamoyl)-4-cyclopropylbenzoic Acid], the IC50 was < 100 nM. For `N#Cc1cc(NS(=O)(=O)c2cc(C(=O)O)ccc2C2CC2)c(C2CCCCN2)cc1Cl` (stereo not shown) [Example 22, 3-(N-(4-chloro-5-cyano-2-(piperidin-2-yl)phenyl)sulfamoyl)-4-cyclopropylbenzoic Acid] the value was < 100 nM; for `O=C(O)c1ccc(C2CC2)c(S(=O)(=O)Nc2cc(-n3cnnn3)ccc2C2CCCCN2)c1` (stereo not shown) [Example 23, 4-cyclopropyl-3-(N-(2-(piperidin-2-yl)-5-(tetrazol-1-yl)phenyl)sulfamoyl)benzoic Acid], < 100 nM; for `O=C(O)c1ccc(C2CC2)c(S(=O)(=O)Nc2cc(C(F)(F)F)c(F)cc2C2CCCCN2)c1` (stereo not shown) [Example 24, 4-cyclopropyl-3-(N-(4-fluoro-2-(piperidin-2-yl)-5-(trifluoromethyl)phenyl)sulfamoyl)benzoic Acid], < 100 nM. With `CS(=O)(=O)c1cc(NS(=O)(=O)c2cc(C(=O)O)ccc2C2CC2)c(C2CCCCN2)cc1F` (stereo not shown) [Example 25, 4-cyclopropyl-3-(N-(4-fluoro-5-(methylsulfonyl)-2-(piperidin-2-yl)phenyl)sulfamoyl)benzoic Acid Hydrochloride], the IC50 was < 100 nM.

As to `O=C(O)c1ccc(C2CC2)c(S(=O)(=O)Nc2cc(C(F)(F)F)c(Cl)cc2C2CCCCN2)c1` (stereo not shown) [Example 26, 3-(N-(4-chloro-2-(piperidin-2-yl)-5-(trifluoromethyl)phenyl)sulfamoyl)-4-cyclopropylbenzoic Acid], the IC50 was < 100 nM. For `CS(=O)(=O)c1cc(NS(=O)(=O)c2cc(C(=O)O)ccc2C2CC2)c(C2CCCCN2)cc1Cl` (stereo not shown) [Example 27, 3-(N-(4-chloro-5-(methylsulfonyl)-2-(piperidin-2-yl)phenyl)sulfamoyl)-4-cyclopropylbenzoic Acid Hydrochloride] the value was < 100 nM; for `O=C(O)c1ccc(C2CC2)c(S(=O)(=O)Nc2cc(-c3ccns3)ccc2C2CCCCN2)c1` (stereo not shown) [Example 28, 4-cyclopropyl-3-(N-(5-(isothiazol-5-yl)-2-(piperidin-2-yl)phenyl)sulfamoyl)benzoic Acid], < 100 nM.

In the case of `O=C(O)c1cc(F)c(C2CC2)c(S(=O)(=O)Nc2cc(C(F)(F)F)ccc2C2CCCCN2)c1` (stereo not shown) [Example 31, 4-cyclopropyl-3-fluoro-5-(N-(2-(piperidin-2-yl)-5-(trifluoromethyl)phenyl)sulfamoyl)benzoic Acid], the IC50 is < 100 nM.
